# Experimental data reported in patent US9834571B2, “Compounds for inhibiting cell proliferation in EGFR-driven cancers” (ARIAD Pharmaceuticals, Inc., priority 2012, dated 2017).
# Like-named read-outs stand apart in the source and are kept apart here.
# Key:
# [1] = tested on: BaF3 cells expressing wildtype EGFR; assay: Antiproliferative activity (MTT) against control BaF3 cells expressing wildtype EGFR; assay type: cell-based; conditions: Mus musculus
# Outline: (§1)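 Growth inhibition of EGFR-mutant BaF3 cells was assessed with an MTT assay. A BaF3 line expressing wildtype EGFR served as comparator.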
# [2] = biological target: human EGFR (native sequence) (Homo sapiens, UniProt P00533); assay: Kinase inhibitory activity against human EGFR (native sequence); assay type: biochemical; conditions: 10 μM ATP, read-out: IC50 for kinase inhibition, EGFR
# Outline: (§2)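 Ten-point dose-response curves were run in singlicate from a 3 μM top concentration, with ATP at 10 μM.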
# EGFR L858R/T790M = EGFR L858R/T790M (Homo sapiens, UniProt P00533, L858R/T790M); assay: Kinase inhibitory activity against EGFR bearing the L858R/T790M double mutation; assay type: biochemical; conditions: 10 μM ATP, read-out: IC50 for kinase inhibition, EGFR L858R T790M
# Chain of EGFR L858R/T790M (P00533 25-1210 T790M/L858R): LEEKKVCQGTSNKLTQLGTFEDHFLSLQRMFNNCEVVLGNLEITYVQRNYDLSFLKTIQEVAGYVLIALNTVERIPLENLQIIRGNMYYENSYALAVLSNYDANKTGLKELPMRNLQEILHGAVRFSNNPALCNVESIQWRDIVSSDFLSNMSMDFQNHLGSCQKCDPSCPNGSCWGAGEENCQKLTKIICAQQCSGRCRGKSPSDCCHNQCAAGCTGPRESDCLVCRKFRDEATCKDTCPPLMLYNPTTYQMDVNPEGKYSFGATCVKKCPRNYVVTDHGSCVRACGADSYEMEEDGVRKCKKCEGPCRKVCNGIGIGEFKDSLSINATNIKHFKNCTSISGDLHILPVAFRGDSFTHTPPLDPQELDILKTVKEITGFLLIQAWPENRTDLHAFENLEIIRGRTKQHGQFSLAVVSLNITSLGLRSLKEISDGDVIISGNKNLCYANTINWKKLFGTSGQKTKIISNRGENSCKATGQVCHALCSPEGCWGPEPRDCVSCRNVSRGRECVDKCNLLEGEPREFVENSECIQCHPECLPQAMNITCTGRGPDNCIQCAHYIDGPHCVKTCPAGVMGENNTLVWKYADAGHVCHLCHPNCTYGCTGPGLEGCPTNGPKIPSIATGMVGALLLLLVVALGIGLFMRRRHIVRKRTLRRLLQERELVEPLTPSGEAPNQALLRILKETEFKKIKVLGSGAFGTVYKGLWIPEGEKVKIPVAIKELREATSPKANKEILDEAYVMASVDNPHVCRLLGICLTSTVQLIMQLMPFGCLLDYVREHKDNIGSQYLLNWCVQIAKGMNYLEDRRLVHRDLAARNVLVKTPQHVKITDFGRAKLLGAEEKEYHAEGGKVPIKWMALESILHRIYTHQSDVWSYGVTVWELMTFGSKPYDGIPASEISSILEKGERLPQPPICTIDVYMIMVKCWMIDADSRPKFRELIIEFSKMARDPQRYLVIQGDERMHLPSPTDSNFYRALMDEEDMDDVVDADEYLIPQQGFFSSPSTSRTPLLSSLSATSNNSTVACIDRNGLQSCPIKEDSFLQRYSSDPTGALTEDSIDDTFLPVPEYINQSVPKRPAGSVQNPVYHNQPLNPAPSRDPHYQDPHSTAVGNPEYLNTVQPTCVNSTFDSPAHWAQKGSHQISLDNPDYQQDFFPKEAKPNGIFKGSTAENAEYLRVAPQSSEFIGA
# Outline: as §2
# [3] = biological target: T1, BaF3 cells expressing the target EGFR mutations (Homo sapiens, UniProt P00533, T790M, cells depend on it, form not given); assay: Antiproliferative activity (MTT) against BaF3 cells expressing the target EGFR mutations; assay type: cell-based; conditions: BAF3 EGFR DEL T790M PURO POOL cells, read-out: IC50, BAF3 EGFR DEL T790M PURO POOL
# T1 construct: IC50, BAF3 EGFR DEL T790M PURO POOL; other: BAF3 EGFR DEL T790M PURO POOL cells, MTT; other: BAF3 EGFR DEL T790M PURO POOL cells; MTT
# T1 sequence (P00533 with tags, fused parts or gaps DEL746-750/T790M, form open): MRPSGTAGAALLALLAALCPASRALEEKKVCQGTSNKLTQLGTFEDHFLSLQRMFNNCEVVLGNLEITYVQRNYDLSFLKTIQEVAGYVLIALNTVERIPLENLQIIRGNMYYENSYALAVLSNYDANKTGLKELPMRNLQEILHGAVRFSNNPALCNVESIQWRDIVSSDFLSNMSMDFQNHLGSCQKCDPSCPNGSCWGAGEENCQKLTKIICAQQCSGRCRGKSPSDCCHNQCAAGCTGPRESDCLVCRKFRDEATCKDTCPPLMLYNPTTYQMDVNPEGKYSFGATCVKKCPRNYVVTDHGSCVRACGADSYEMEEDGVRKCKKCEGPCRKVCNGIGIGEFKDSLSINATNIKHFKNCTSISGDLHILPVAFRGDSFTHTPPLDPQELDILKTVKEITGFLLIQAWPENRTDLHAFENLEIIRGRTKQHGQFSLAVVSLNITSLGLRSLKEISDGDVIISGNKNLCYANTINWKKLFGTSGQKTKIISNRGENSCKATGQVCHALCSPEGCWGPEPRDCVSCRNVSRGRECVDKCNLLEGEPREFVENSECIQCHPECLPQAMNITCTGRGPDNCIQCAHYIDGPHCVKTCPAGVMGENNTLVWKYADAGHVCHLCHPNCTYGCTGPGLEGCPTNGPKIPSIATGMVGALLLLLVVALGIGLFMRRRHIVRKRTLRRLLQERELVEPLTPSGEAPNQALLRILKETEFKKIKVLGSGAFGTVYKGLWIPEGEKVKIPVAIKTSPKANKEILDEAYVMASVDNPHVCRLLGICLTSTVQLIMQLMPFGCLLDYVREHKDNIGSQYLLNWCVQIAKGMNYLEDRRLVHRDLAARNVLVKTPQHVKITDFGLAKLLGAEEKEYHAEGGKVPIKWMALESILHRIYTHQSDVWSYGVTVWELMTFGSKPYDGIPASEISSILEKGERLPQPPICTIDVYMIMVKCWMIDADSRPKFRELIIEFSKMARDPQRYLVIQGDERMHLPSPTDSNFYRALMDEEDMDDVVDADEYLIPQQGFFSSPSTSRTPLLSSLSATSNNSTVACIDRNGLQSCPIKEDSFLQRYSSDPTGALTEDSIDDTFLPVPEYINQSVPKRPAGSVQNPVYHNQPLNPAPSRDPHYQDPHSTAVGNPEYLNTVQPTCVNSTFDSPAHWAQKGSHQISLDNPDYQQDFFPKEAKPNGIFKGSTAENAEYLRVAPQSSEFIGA
# Outline: as §1
# [4] = biological target: T2, BaF3 cells expressing the target EGFR mutations (Homo sapiens, UniProt P00533, T790M/L858R, cells depend on it); assay: as above; assay type: cell-based; conditions: BAF3 EGFR L858R-T790M PURO POOL cells, read-out: IC50, BAF3 EGFR L858R-T790M PURO POOL
# T2 construct: IC50, BAF3 EGFR L858R-T790M PURO POOL; other: BAF3 EGFR L858R-T790M PURO POOL cells, MTT; IC50, BAF3 EGFR L858R-T790M PURO POOL; other: BAF3 EGFR L858R-T790M PURO POOL cells; MTT
# T2 sequence (P00533 whole entry T790M/L858R): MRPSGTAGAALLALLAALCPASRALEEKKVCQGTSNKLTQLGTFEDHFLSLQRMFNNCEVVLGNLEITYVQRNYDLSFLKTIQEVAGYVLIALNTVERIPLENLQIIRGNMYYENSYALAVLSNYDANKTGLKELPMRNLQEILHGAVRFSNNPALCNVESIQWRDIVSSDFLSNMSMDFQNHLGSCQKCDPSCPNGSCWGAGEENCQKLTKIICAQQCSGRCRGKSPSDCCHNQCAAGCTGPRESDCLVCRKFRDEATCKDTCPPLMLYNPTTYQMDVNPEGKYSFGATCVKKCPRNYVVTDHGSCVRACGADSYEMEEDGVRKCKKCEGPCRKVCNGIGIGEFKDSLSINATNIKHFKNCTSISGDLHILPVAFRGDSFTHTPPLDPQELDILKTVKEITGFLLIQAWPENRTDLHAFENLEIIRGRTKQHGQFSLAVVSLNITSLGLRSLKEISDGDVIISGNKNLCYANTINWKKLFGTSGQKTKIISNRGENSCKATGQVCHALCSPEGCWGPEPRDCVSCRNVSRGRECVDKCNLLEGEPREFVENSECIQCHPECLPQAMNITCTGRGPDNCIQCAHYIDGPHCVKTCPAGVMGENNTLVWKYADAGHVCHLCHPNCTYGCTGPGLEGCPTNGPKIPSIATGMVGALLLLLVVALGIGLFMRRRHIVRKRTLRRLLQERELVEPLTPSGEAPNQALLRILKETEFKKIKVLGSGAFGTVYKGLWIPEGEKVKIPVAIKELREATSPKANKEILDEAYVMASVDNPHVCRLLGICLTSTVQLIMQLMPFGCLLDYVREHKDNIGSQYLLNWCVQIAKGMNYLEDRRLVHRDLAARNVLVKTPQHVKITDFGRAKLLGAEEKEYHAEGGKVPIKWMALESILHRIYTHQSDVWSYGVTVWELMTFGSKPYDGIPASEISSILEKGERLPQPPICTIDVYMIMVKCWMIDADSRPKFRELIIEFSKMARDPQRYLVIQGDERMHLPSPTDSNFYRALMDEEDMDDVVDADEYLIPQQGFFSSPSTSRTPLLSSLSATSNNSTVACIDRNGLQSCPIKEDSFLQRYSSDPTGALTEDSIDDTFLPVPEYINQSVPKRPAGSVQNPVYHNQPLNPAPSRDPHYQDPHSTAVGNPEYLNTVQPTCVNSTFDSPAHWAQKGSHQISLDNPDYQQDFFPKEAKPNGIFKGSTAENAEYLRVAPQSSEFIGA
# Outline: as §1
# EGFR L858R = EGFR L858R (Homo sapiens, UniProt P00533, L858R); assay: Kinase inhibitory activity against EGFR bearing the L858R mutation; assay type: biochemical; conditions: 10 μM ATP, read-out: IC50 for kinase inhibition, EGFR L858R
# Chain of EGFR L858R (P00533 25-1210 L858R): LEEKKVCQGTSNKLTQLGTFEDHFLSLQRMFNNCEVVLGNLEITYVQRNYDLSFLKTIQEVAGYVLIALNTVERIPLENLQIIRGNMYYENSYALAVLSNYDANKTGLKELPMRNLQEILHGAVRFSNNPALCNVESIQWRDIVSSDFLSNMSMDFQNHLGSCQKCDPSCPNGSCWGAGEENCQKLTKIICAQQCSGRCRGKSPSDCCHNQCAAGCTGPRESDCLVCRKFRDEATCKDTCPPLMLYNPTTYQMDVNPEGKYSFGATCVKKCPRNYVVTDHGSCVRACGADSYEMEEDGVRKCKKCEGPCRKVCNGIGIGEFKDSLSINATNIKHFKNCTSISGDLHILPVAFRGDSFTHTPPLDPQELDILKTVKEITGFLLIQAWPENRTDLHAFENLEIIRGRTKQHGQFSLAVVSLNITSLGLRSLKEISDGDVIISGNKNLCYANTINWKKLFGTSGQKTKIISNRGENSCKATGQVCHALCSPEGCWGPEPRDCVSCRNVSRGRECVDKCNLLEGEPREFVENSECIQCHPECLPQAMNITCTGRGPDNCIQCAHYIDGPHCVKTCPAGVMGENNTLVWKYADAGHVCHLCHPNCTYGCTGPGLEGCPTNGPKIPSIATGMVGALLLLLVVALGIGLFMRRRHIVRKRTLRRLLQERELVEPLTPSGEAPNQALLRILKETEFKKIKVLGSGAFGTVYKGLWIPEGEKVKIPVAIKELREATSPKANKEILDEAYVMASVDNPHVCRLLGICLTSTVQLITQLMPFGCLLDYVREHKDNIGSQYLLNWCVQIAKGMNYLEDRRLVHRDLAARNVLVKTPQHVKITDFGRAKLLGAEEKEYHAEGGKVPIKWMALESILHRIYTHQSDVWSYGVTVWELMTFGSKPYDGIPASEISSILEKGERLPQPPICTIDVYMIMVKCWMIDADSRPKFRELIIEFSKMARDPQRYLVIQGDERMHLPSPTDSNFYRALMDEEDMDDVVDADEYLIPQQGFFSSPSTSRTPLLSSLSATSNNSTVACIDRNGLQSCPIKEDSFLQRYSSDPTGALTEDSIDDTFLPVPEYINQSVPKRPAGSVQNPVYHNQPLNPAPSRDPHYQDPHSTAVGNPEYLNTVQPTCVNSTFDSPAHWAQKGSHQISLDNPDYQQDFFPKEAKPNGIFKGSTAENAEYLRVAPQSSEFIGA
# Outline: as §2
# [5] = EGFR L858R/T790M double mutation
# [6] = 10 pt curves, 3 μM top concentration
SMILES,IC50 ([1]; BAF3 PARENTAL cells (control)),IC50 ([2]; human EGFR native sequence),IC50 (EGFR L858R/T790M; [5]),GI50 [3],GI50 [4],IC50 (EGFR L858R; EGFR L858R),IC50 ([1]; BAF3 parental cells),"IC50 [2, 6]",IC50 (EGFR L858R/T790M; [6]),IC50 (EGFR L858R; [6])
"COc1cc(P(C)(C)=O)ccc1Nc1ncc(Cl)c(Oc2cccc(NC(=O)C#CCN(C)C)c2)n1 [Example 83, N-(3-((5-chloro-2-((4-(dimethylphosphoryl)-2-methoxyphenyl)amino)pyrimidin-4-yl)oxy)phenyl)-4-(dimethylamino)but-2-ynamide]",≥ 250 nM,< 50 nM,< 50 nM,101 to 250 nM,≥ 250 nM,< 50 nM,–,–,–,–
"C=CC(=O)Nc1cc(Nc2ncc(Cl)c(Nc3ccccc3P(C)(C)=O)n2)c(OC)cc1C#CC(C)(C)N(CC)CC [Example 154, N-(5-((5-chloro-4-((2-(dimethylphosphoryl)phenyl)amino)pyrimidin-2-yl)amino)-2-(3-(diethylamino)-3-methylbut-1-yn-1-yl)-4-methoxyphenyl)acrylamide]",–,–,–,< 50 nM,< 50 nM,–,≥ 250 nM,< 50 nM,< 50 nM,< 50 nM
"CC#CC(=O)Nc1cc(Nc2ncc(Cl)c(Nc3ccccc3P(C)(C)=O)n2)c(OC)cc1OCCN1CCCC1 [Example 80, N-(5-((5-chloro-4-((2-(dimethylphosphoryl)phenyl)amino)pyrimidin-2-yl)amino)-4-methoxy-2-(2-(pyrrolidin-1-yl)ethoxy)phenyl)but-2-ynamide]",≥ 250 nM,≥ 250 nM,< 50 nM,< 50 nM,101 to 250 nM,< 50 nM,–,–,–,–
"C=CC(=O)Nc1cc(Nc2ncc(Cl)c(Nc3ccccc3P(C)(C)=O)n2)c(OC)cc1N1CCC(N2CCCC2)CC1 [Example 72, N-(5-((5-chloro-4-((2-(dimethylphosphoryl)phenyl)amino)pyrimidin-2-yl)amino)-4-methoxy-2-(4-(pyrrolidin-1-yl)piperidin-1-yl)phenyl)acrylamide]",≥ 250 nM,50 to 100 nM,< 50 nM,< 50 nM,101 to 250 nM,< 50 nM,–,–,–,–
"COc1cc(F)c(NC(=O)CCl)cc1Nc1ncc(Cl)c(Nc2ccccc2P(C)(C)=O)n1 [Example 149, 2-chloro-N-(5-((5-chloro-4-((2-(dimethylphosphoryl)phenyl)amino)pyrimidin-2-yl)amino)-2-fluoro-4-methoxyphenyl)acetamide]",–,–,–,< 50 nM,< 50 nM,–,≥ 250 nM,< 50 nM,< 50 nM,< 50 nM
C=CC(=O)Nc1cc(Nc2ncc(Cl)c(Nc3ccccc3P(C)(C)=O)n2)c(C)cc1OC(COC)CN(C)C (stereo not drawn) [Example 143],–,–,–,< 50 nM,< 50 nM,–,≥ 250 nM,< 50 nM,< 50 nM,< 50 nM
"C=CC(=O)Nc1cc(Nc2ncc(Cl)c(Nc3ccccc3P(C)(C)=O)n2)c(OC)cc1OC1CCCN(C)C1 (stereo not drawn) [Example 12, N-(5-((5-chloro-4-((2-(dimethylphosphoryl)phenyl)amino)pyrimidin-2-yl)amino)-4-methoxy-2-((1-methylpiperidin-3-yl)oxy)phenyl)acrylamide]",≥ 250 nM,< 50 nM,< 50 nM,< 50 nM,< 50 nM,< 50 nM,–,–,–,–
"COc1cc(F)c(NC(=O)C#CCCN2CCCCC2)cc1Nc1ncc(Cl)c(Nc2ccccc2P(C)(C)=O)n1 [Example 88, N-(5-((5-chloro-4-((2-(dimethylphosphoryl)phenyl)amino)pyrimidin-2-yl)amino)-2-fluoro-4-methoxyphenyl)-5-(piperidin-1-yl)pent-2-ynamide]",≥ 250 nM,< 50 nM,< 50 nM,< 50 nM,< 50 nM,< 50 nM,–,–,–,–
"C=CC(=O)Nc1cc(Nc2ncc(Cl)c(Nc3ccccc3P(C)(C)=O)n2)c(OC)cc1N1CCC(N2CCN(C)CC2)C1 (stereo not drawn) [Example 37, N-(5-((5-chloro-4-((2-(dimethylphosphoryl)phenyl)amino)pyrimidin-2-yl)amino)-4-methoxy-2-(3-(4-methylpiperazin-1-yl)pyrrolidin-1-yl)phenyl)acrylamide]",≥ 250 nM,< 50 nM,< 50 nM,50 to 100 nM,101 to 250 nM,< 50 nM,–,–,–,–
"C=CC(=O)Nc1cc(Nc2ncc(Cl)c(Nc3ccccc3P(C)(C)=O)n2)c(OC)cc1N1CCC(N2CCN(C)CC2)CC1 [Example 22, N-(5-((5-chloro-4-((2-(dimethylphosphoryl)phenyl)amino)pyrimidin-2-yl)amino)-4-methoxy-2-(4-(4-methylpiperazin-1-yl)piperidin-1-yl)phenyl)acrylamide]",≥ 250 nM,< 50 nM,< 50 nM,50 to 100 nM,50 to 100 nM,< 50 nM,–,–,–,–
"C=CC(=O)Nc1cc(Nc2ncc(Cl)c(Nc3ccccc3P(C)(C)=O)n2)c(OC)cc1C#CCN1CCCCC1 [Example 167, N-(5-((5-chloro-4-((2-(dimethylphosphoryl)phenyl)amino)pyrimidin-2-yl)amino)-4-methoxy-2-(3-(piperidin-1-yl)prop-1-yn-1-yl)phenyl)acrylamide]",–,–,–,< 50 nM,< 50 nM,–,< 50 nM,< 50 nM,< 50 nM,< 50 nM
"COc1ccc(NC(=O)CF)cc1Nc1ncc(Cl)c(Nc2ccccc2P(C)(C)=O)n1 [Example 147, N-(3-((5-chloro-4-((2-(dimethylphosphoryl)phenyl)amino)pyrimidin-2-yl)amino)-4-methoxyphenyl)-2-fluoroacetamide]",–,–,–,≥ 250 nM,≥ 250 nM,–,≥ 250 nM,≥ 250 nM,101 to 250 nM,50 to 100 nM
"C=CC(=O)Nc1ccc(Cl)c(Nc2ncc(Cl)c(Nc3ccccc3P(C)(C)=O)n2)c1 [Example 136, N-(4-chloro-3-((5-chloro-4-((2-(dimethylphosphoryl)phenyl)amino)pyrimidin-2-yl)amino)phenyl)acrylamide]",–,–,–,< 50 nM,< 50 nM,–,≥ 250 nM,< 50 nM,< 50 nM,< 50 nM
